Measurements: PubChem BioAssay (NCI)
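Method: 48-hour compound exposure of cells in 96-well plates, five concentrations, linear interpolation of endpoints. GI50: concentration for 50% inhibition of growth. Definition used: TGI = concentration required for complete inhibition of growth.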

Experiments:
Experiment in all cases: growth of human tumour cells (NCI), 48 h
SK-MEL-28 melanoma = system: SK-MEL-28 melanoma
M14 melanoma = system: M14 melanoma
A498 renal = system: A498 renal
UACC-62 melanoma = system: UACC-62 melanoma
OVCAR-4 ovarian = system: OVCAR-4 ovarian
ACHN renal = system: ACHN renal
SK-MEL-5 melanoma = system: SK-MEL-5 melanoma
LOX IMVI melanoma = system: LOX IMVI melanoma
SR leukemia = system: SR leukemia
PC-3 prostate = system: PC-3 prostate

| SMILES | GI50 (SK-MEL-28 melanoma) | TGI (SK-MEL-28 melanoma) | GI50 (M14 melanoma) | TGI (M14 melanoma) | GI50 (A498 renal) | TGI (A498 renal) | GI50 (UACC-62 melanoma) | TGI (UACC-62 melanoma) | GI50 (OVCAR-4 ovarian) | TGI (OVCAR-4 ovarian) | GI50 (ACHN renal) | TGI (ACHN renal) | GI50 (SK-MEL-5 melanoma) | TGI (SK-MEL-5 melanoma) | GI50 (LOX IMVI melanoma) | TGI (LOX IMVI melanoma) | TGI (SR leukemia) | GI50 (PC-3 prostate) | TGI (PC-3 prostate) |
| --- | --- | --- | --- | --- | --- | --- | --- | --- | --- | --- | --- | --- | --- | --- | --- | --- | --- | --- | --- |
| N.N.N.N.O=C([O-])C(Cl)Cl.O=C([O-])C(Cl)Cl.[Co+3].[O-][Cl+3]([O-])([O-])[O-] | > 100 µM | > 100 µM | > 100 µM | > 100 µM | > 100 µM | > 100 µM | > 100 µM | > 100 µM | > 100 µM | > 100 µM | > 100 µM | > 100 µM | > 100 µM | > 100 µM | > 100 µM | > 100 µM |  |  |  |
| O=[N+]([O-])c1cnn(C2=CNc3ccccc3N=C2)c1 |  | > 100 µM |  |  |  |  |  | > 100 µM |  |  |  | > 100 µM |  |  |  |  | > 100 µM |  |  |
| CS(=O)(=O)CSCSSCS(C)(=O)=O |  | 66.4 µM |  | 40.8 µM |  | > 100 µM |  | 47 µM |  | > 100 µM |  | > 100 µM |  | > 100 µM |  | 71.2 µM | > 91.8 µM |  |  |
| CCCCN(CCCC)c1c([N+](=O)[O-])c(=O)nc2ccccn12 |  | 54 µM |  | 83.3 µM |  | 48.2 µM |  | > 100 µM |  |  |  | > 100 µM |  | > 100 µM |  |  | > 100 µM |  |  |
| Cc1ccc(-c2cc(-c3ccco3)c(C#N)c(=O)n2C2OC(OC(=O)c3ccccc3)C(OC(=O)c3ccccc3)C2OC(=O)c2ccccc2)cc1 (stereo not drawn) |  | > 100 µM |  | > 100 µM |  | > 100 µM |  | > 100 µM |  |  |  | > 100 µM |  |  |  | > 100 µM | > 100 µM |  |  |
| CCn1c2ccc(O)cc2c2c(C)c3c[n+](C)ccc3c(C)c21 | 2.83 µM | 16 µM | 4.4 µM | 29.2 µM | 3.71 µM | 59.4 µM | 2.05 µM | 22.8 µM | 5.83 µM | 47.1 µM | 8.85 µM | > 100 µM | 2.27 µM | 10.8 µM | 8.83 µM | > 100 µM |  | 15.2 µM | > 100 µM |
| CC(=O)NC(CCCCNC(=O)NCCCl)C(=O)NCc1ccccc1 (stereo not drawn) |  | > 100 µM |  | > 100 µM |  |  |  | > 100 µM |  | > 100 µM |  | > 100 µM |  | > 100 µM |  |  | > 100 µM |  |  |
| Cc1cc(S(=O)(=O)NC#N)c(S/C(=N\Nc2ccc([N+](=O)[O-])cc2)c2ccc(Cl)cc2)cc1Cl | 31.2 µM | > 100 µM | 54.5 µM | > 100 µM |  | 2.3 µM | > 100 µM | > 100 µM | 20.9 µM | 75 µM | 34.1 µM | > 100 µM | 18.5 µM | 42.3 µM | 30.1 µM | > 100 µM |  | 33.6 µM | > 100 µM |
| NCCCCNc1ccc2c(=O)[nH][nH]c(=O)c2c1 |  | > 100 µM |  | > 100 µM |  | > 100 µM |  | > 100 µM |  | > 100 µM |  | > 100 µM |  | > 100 µM |  | > 100 µM | > 100 µM |  |  |
| CCOP(=O)(OCC)OC(C#N)c1ccc(-c2ccccc2)cc1 (stereo not drawn) |  | > 100 µM |  | 33.3 µM |  | 62.7 µM |  | 29.2 µM |  | 36.6 µM |  | > 100 µM |  | 31.8 µM |  | 29.1 µM | 59 µM |  |  |
